# Publication PMC4689404, “2-Benzazolyl-4-Piperazin-1-Ylsulfonylbenzenecarbohydroxamic Acids as Novel Selective Histone Deacetylase-6 Inhibitors with Antiproliferative Activity” (PLoS ONE, 2015)
# Columns and labels:
# [1] = system: HCC4017 lung cancer cells; assay: cell cycle analysis (PI, FACS); format: cell-based, human; conditions: for effect on cell cycle distribution: HCC4017, FACs analysis; for subG0 population: HCC4017, even after 64h
# Experimental: (§1) For cell cycle analysis, cells were washed with PBS, fixed in 70% ethanol for 2 h, washed with PBS and resuspended in staining solution (0.1% Triton X-100, 0.2 mg/ml DNAse-free RNAse A and […]) and incubated at 37C for 15 min. Histograms were acquired on a BD FACSCalibur flow cytometer at UT Southwestern’s core facility. Apoptosis was measured using a FITC Annexin V Apoptosis Detection Kit I (BD Pharmingen) according to manufacturer’s protocol after treating cells with compounds as indicated in Figure legends.
# HCC4017 cells = assay: Annexin V apoptosis assay; format: cell-based, human; conditions: 18h, 40h, 64h
# Experimental: as §1
# [2] = system: Non-Small Cell Lung cancer cell lines; assay: NCI 60 screen, five dose; format: cell-based, human; conditions: NSCL cancer; for GI50: Homo sapiens; for no. cell lines used for the assay/no inhibited by compound: figures in parenthesis
# Colon cancer cell lines = assay: NCI 60 screen, five dose; format: cell-based, human; conditions: for GI50: Homo sapiens; for no. cell lines used for the assay/no inhibited by compound: figures in parenthesis
# CNS cancer cell lines = assay: NCI 60 screen, five dose; format: cell-based, human; conditions: for GI50: Homo sapiens; for no. cell lines used for the assay/no inhibited by compound: figures in parenthesis
# Melanoma cell lines = assay: NCI 60 screen, five dose; format: cell-based, human; conditions: for GI50: Homo sapiens; for no. cell lines used for the assay/no inhibited by compound: figures in parenthesis
# [3] = system: Ovarian cancer cell lines; assay: NCI 60 screen, five dose; format: cell-based, human; conditions: for GI50: Homo sapiens; for no. cell lines used for the assay/no inhibited by compound: figures in parenthesis
# Renal Cancer cell lines = assay: NCI 60 screen, five dose; format: cell-based, human; conditions: for GI50: Homo sapiens; for no. cell lines used for the assay/no inhibited by compound: figures in parenthesis
# [4] = system: Prostate Cancer cell lines; assay: NCI 60 screen, five dose; format: cell-based, human; conditions: for GI50: Homo sapiens; for no. cell lines used for the assay/no inhibited by compound: figures in parenthesis
# HL-60(TB) = assay: NCI 60 screen, five dose; format: cell-based; conditions: Homo sapiens, Leukemia, GI50 = molar concentration, read-out: Log10 GI50 (converted)
# K-562 = assay: NCI 60 screen, five dose; format: cell-based; conditions: Homo sapiens, K562, Leukemia, GI50 = molar concentration, read-out: Log10 GI50 (converted)
# RPMI-8226 = assay: NCI 60 screen, five dose; format: cell-based; conditions: Homo sapiens, Leukemia, GI50 = molar concentration, read-out: Log10 GI50 (converted)
# A549/ATCC = assay: NCI 60 screen, five dose; format: cell-based; conditions: Homo sapiens, Non-Small Cell Lung Cancer, GI50 = molar concentration, read-out: Log10 GI50 (converted)
# EKVX = assay: NCI 60 screen, five dose; format: cell-based; conditions: Homo sapiens, Non-Small Cell Lung Cancer, GI50 = molar concentration, read-out: Log10 GI50 (converted)
# HOP-62 = assay: NCI 60 screen, five dose; format: cell-based; conditions: Homo sapiens, Non-Small Cell Lung Cancer, GI50 = molar concentration, read-out: Log10 GI50 (converted)
# NCI-H23 = assay: NCI 60 screen, five dose; format: cell-based; conditions: Homo sapiens, Non-Small Cell Lung Cancer, GI50 = molar concentration, read-out: Log10 GI50 (converted)
# NCI-H322M = assay: NCI 60 screen, five dose; format: cell-based; conditions: Homo sapiens, Non-Small Cell Lung Cancer, GI50 = molar concentration, read-out: Log10 GI50 (converted)
# NCI-H460 = assay: NCI 60 screen, five dose; format: cell-based; conditions: Homo sapiens, Non-Small Cell Lung Cancer, GI50 = molar concentration, read-out: Log10 GI50 (converted)
# SF-268 = assay: NCI 60 screen, five dose; format: cell-based; conditions: Homo sapiens, CNS Cancer, GI50 = molar concentration, read-out: Log10 GI50 (converted)
# SNB-75 = assay: NCI 60 screen, five dose; format: cell-based; conditions: Homo sapiens, CNS Cancer, GI50 = molar concentration, read-out: Log10 GI50 (converted)
# U251 = assay: NCI 60 screen, five dose; format: cell-based; conditions: Homo sapiens, U-251, CNS Cancer, GI50 = molar concentration, read-out: Log10 GI50 (converted)
# MALME-3M = assay: NCI 60 screen, five dose; format: cell-based; conditions: Homo sapiens, Melanoma, GI50 = molar concentration, read-out: Log10 GI50 (converted)
# MDA-MB-435 = assay: NCI 60 screen, five dose; format: cell-based; conditions: Homo sapiens, Melanoma, GI50 = molar concentration, read-out: Log10 GI50 (converted)
# UACC-257 = assay: NCI 60 screen, five dose; format: cell-based; conditions: Homo sapiens, Melanoma, GI50 = molar concentration, read-out: Log10 GI50 (converted)
# UACC-62 = assay: NCI 60 screen, five dose; format: cell-based; conditions: Homo sapiens, Melanoma, GI50 = molar concentration, read-out: Log10 GI50 (converted)
# NCI/ADR-RES = assay: NCI 60 screen, five dose; format: cell-based; conditions: Homo sapiens, Ovarian Cancer, GI50 = molar concentration, read-out: Log10 GI50 (converted)
# SK-OV-3 = assay: NCI 60 screen, five dose; format: cell-based; conditions: Homo sapiens, Ovarian Cancer, GI50 = molar concentration, read-out: Log10 GI50 (converted)
# 786-0 = assay: NCI 60 screen, five dose; format: cell-based; conditions: Homo sapiens, Renal Cancer, GI50 = molar concentration, read-out: Log10 GI50 (converted)
# CAKI-1 = assay: NCI 60 screen, five dose; format: cell-based; conditions: Homo sapiens, Renal Cancer, GI50 = molar concentration, read-out: Log10 GI50 (converted)
# SN12C = assay: NCI 60 screen, five dose; format: cell-based; conditions: Homo sapiens, Renal Cancer, GI50 = molar concentration, read-out: Log10 GI50 (converted)
# MCF7 = assay: NCI 60 screen, five dose; format: cell-based; conditions: Homo sapiens, Breast Cancer, GI50 = molar concentration, read-out: Log10 GI50 (converted)
# MDA-MB-231/ATCC = assay: NCI 60 screen, five dose; format: cell-based; conditions: Homo sapiens, Breast Cancer, GI50 = molar concentration, read-out: Log10 GI50 (converted)
# BT-549 = assay: NCI 60 screen, five dose; format: cell-based; conditions: Homo sapiens, Breast Cancer, GI50 = molar concentration, read-out: Log10 GI50 (converted)
# T-47D = assay: NCI 60 screen, five dose; format: cell-based; conditions: Homo sapiens, T47D, Breast Cancer, GI50 = molar concentration, read-out: Log10 GI50 (converted)
# MDA-MB-468 = assay: NCI 60 screen, five dose; format: cell-based; conditions: Homo sapiens, Breast Cancer, GI50 = molar concentration, read-out: Log10 GI50 (converted)
# MOLT-4 = assay: NCI 60 screen, five dose; format: cell-based; conditions: Homo sapiens, Leukemia, GI50 = molar concentration, read-out: Log10 GI50 (converted)
# SR = assay: NCI 60 screen, five dose; format: cell-based; conditions: Homo sapiens, Leukemia, GI50 = molar concentration, read-out: Log10 GI50 (converted)
# HT29 = assay: NCI 60 screen, five dose; format: cell-based; conditions: Homo sapiens, HT-29, Colon Cancer, GI50 = molar concentration, read-out: Log10 GI50 (converted)
# OVCAR-3 = assay: NCI 60 screen, five dose; format: cell-based; conditions: Homo sapiens, Ovarian Cancer, GI50 = molar concentration, read-out: Log10 GI50 (converted)
# HS 578T = assay: NCI 60 screen, five dose; format: cell-based; conditions: Homo sapiens, Breast Cancer, GI50 = molar concentration, read-out: Log10 GI50 (converted)
structure (smiles),measurement,setting,value
"Cn1c(N2CCN(S(=O)(=O)c3ccc(C(=O)NO)cc3)CC2)nc2ccccc21 [Compound 9b, 4-[4-(1-methylbenzimidazol-2-yl)piperazin-1-yl]sulfonylbenzenecarbohydroxamic acid]",effect on cell cycle distribution,[1],affect cell cycle distribution after just 18h of treatment
same,subG0 population,[1],no subG0 population was observed
same,"Annexin V staining, percent of dead cells",HCC4017 cells,did not show any reproducible significant changes
"O=C(NO)c1ccc(S(=O)(=O)N2CCN(c3nc4ccccc4o3)CC2)cc1 [Compound 9c, 4-(4-Benzoxazol-2-yl-piperazin-1-sulfonyl)-N -hydroxy-benzamid]",effect on cell cycle distribution,[1],affect cell cycle distribution after just 18h of treatment
same,subG0 population,[1],no subG0 population was observed
same,"Annexin V staining, percent of dead cells",HCC4017 cells,did not show any reproducible significant changes
same,GI50,[2],9.51 µM
same,no. cell lines used for the assay/no inhibited by compound,[2],3/9
same,GI50,Colon cancer cell lines,6.05 µM
same,no. cell lines used for the assay/no inhibited by compound,Colon cancer cell lines,4/6
same,GI50,CNS cancer cell lines,5.82 µM
same,no. cell lines used for the assay/no inhibited by compound,CNS cancer cell lines,4/6
same,GI50,Melanoma cell lines,5.62 µM
same,no. cell lines used for the assay/no inhibited by compound,Melanoma cell lines,6/8
same,GI50,[3],7.66 µM
same,no. cell lines used for the assay/no inhibited by compound,[3],2/5
same,GI50,Renal Cancer cell lines,8.24 µM
same,no. cell lines used for the assay/no inhibited by compound,Renal Cancer cell lines,3/8
same,GI50,[4],4.89 µM
same,no. cell lines used for the assay/no inhibited by compound,[4],2/2
same,GI50,HL-60(TB),5.89 µM
same,GI50,K-562,6.31 µM
same,GI50,RPMI-8226,0.38 µM
same,GI50,A549/ATCC,13.5 µM
same,GI50,EKVX,8.91 µM
same,GI50,HOP-62,12 µM
same,GI50,NCI-H23,3.72 µM
same,GI50,NCI-H322M,14.5 µM
same,GI50,NCI-H460,10.7 µM
same,GI50,SF-268,12 µM
same,GI50,SNB-75,4.37 µM
same,GI50,U251,6.46 µM
same,GI50,MALME-3M,1.38 µM
same,GI50,MDA-MB-435,3.63 µM
same,GI50,UACC-257,6.46 µM
same,GI50,UACC-62,4.27 µM
same,GI50,NCI/ADR-RES,21.9 µM
same,GI50,SK-OV-3,14.8 µM
same,GI50,786-0,23.4 µM
same,GI50,CAKI-1,3.39 µM
same,GI50,SN12C,11.7 µM
same,GI50,MCF7,3.8 µM
same,GI50,MDA-MB-231/ATCC,13.2 µM
same,GI50,BT-549,12 µM
same,GI50,T-47D,5.75 µM
same,GI50,MDA-MB-468,11 µM
"O=C(NO)c1ccc(S(=O)(=O)N2CCN(c3nc4ccccc4s3)CC2)cc1 [Compound 9d, 4-(4-Benzothiazol-2-yl-piperazin-1-sulfonyl)-N -hydroxy-benzamid]",GI50,[2],3.77 µM
same,no. cell lines used for the assay/no inhibited by compound,[2],4/9
same,GI50,Colon cancer cell lines,2.3 µM
same,no. cell lines used for the assay/no inhibited by compound,Colon cancer cell lines,6/7
same,GI50,CNS cancer cell lines,2.77 µM
same,no. cell lines used for the assay/no inhibited by compound,CNS cancer cell lines,4/6
same,GI50,Melanoma cell lines,2.66 µM
same,no. cell lines used for the assay/no inhibited by compound,Melanoma cell lines,5/8
same,GI50,[3],4.01 µM
same,no. cell lines used for the assay/no inhibited by compound,[3],3/3
same,GI50,Renal Cancer cell lines,3.94 µM
same,no. cell lines used for the assay/no inhibited by compound,Renal Cancer cell lines,3/8
same,GI50,[4],2.48 µM
same,no. cell lines used for the assay/no inhibited by compound,[4],2/2
same,GI50,HL-60(TB),2.57 µM
same,GI50,MOLT-4,3.02 µM
same,GI50,RPMI-8226,1.38 µM
same,GI50,SR,1.12 µM
same,GI50,A549/ATCC,3.63 µM
same,GI50,EKVX,4.37 µM
same,GI50,HOP-62,3.8 µM
same,GI50,NCI-H23,1.55 µM
same,GI50,NCI-H322M,5.62 µM
same,GI50,NCI-H460,5.13 µM
same,GI50,HT29,5.62 µM
same,GI50,SF-268,3.98 µM
same,GI50,SNB-75,1.74 µM
same,GI50,U251,2.75 µM
same,GI50,MALME-3M,2.57 µM
same,GI50,MDA-MB-435,1.86 µM
same,GI50,UACC-257,3.55 µM
same,GI50,UACC-62,1.7 µM
same,GI50,OVCAR-3,3.02 µM
same,GI50,NCI/ADR-RES,6.61 µM
same,GI50,SK-OV-3,7.76 µM
same,GI50,786-0,9.12 µM
same,GI50,CAKI-1,2.34 µM
same,GI50,SN12C,10.5 µM
same,GI50,MCF7,15.8 µM
same,GI50,MDA-MB-231/ATCC,5.01 µM
same,GI50,HS 578T,1.45 µM
same,GI50,BT-549,2.4 µM
same,GI50,T-47D,3.89 µM
